Holding throughout (test): growth of human tumour cells (NCI), 48 h
In experiment [1] the test system is HS 578T breast.
In experiment [2] the test system is T-47D breast.
The subject of experiment [3] is NCI-H226 lung.
The subject of experiment [4] is UACC-62 melanoma.
Experiment [5] deals with NCI-H23 lung.
The subject of experiment [6] is MOLT-4 leukemia.
Experiment [7] has as its system HCC-2998 colon.

Each structure is given as a SMILES string.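 The compound was tested at five concentrations on cells cultured in 96-well plates, with a 48-hour exposure period. At the GI50, growth is halved. TGI denotes the concentration required for complete inhibition of growth.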

In the case of `CCCC(CCC)C(=O)OCC1(CO)C/C(=C\c2ccc(C(F)(F)F)cc2)C(=O)O1` (stereo not drawn), the GI50 was 12.1 µM in experiment [1]; 14.7 µM in experiment [2]; 14.1 µM in experiment [3]; 11 µM in experiment [4]; 15.8 µM in experiment [5]; 14.3 µM in experiment [6]. Moreover, the GI50 in experiment [7] was 10.9 µM. Moreover, the TGI worked out at 30 µM in experiment [1]; 29.4 µM in experiment [2]; 33.1 µM in experiment [3]; 27.1 µM in experiment [4]; 32.1 µM in experiment [5]; 31.9 µM in experiment [6]. For the same compound, the TGI in experiment [7] was 24 µM.

On to `COc1ccc(CN=C(N)N=C(N)N)cc1OC`, for which the GI50 in experiment [1] is greater than 1000 µM; in experiment [2], 907 µM; in experiment [3], 619 µM; in experiment [4] it was 558 µM; in experiment [5], 522 µM; in experiment [6] it was greater than 1000 µM. Further, the GI50 in experiment [7] was greater than 1000 µM. The TGI in experiment [1], in experiment [2], in experiment [3], in experiment [4], in experiment [5] and in experiment [6] was greater than 1000 µM each time. The same compound yielded a TGI in experiment [7] greater than 1000 µM.

For the compound `O=C1NC(SCc2ccc(F)cc2)=N/C1=C/c1cccc(OCc2ccc(Cl)cc2)c1`, the GI50 is 9.36 µM in experiment [1]; 13.9 µM in experiment [2]; 5.42 µM in experiment [3]; greater than 100 µM in experiment [4]; 16.9 µM in experiment [5]; 31.6 µM in experiment [6]. For the same compound, the GI50 in experiment [7] is 51.1 µM. Further, the TGI in experiment [1], in experiment [2], in experiment [3], in experiment [4], in experiment [5] and in experiment [6] was greater than 100 µM in each case. The TGI in experiment [7] is greater than 100 µM.

In the case of `COc1cc(NC(=O)c2cc(O)c(C/C=C(\C)CCC=C(C)C)c(O)c2)cc2c1O[C@]1(C)CC[C@@H](O)C(C)(C)[C@H]1C2`, the GI50 is 0.348 µM in experiment [1]; 1.63 µM in experiment [2]; 3.34 µM in experiment [3]; 1.42 µM in experiment [4]; 2.38 µM in experiment [5]; 0.409 µM in experiment [6]. Further, the GI50 in experiment [7] was 2.21 µM. Also, the TGI turned out to be 8.75 µM in experiment [1]; 6.95 µM in experiment [2]; 16.2 µM in experiment [3]; 3.37 µM in experiment [4]; 12.8 µM in experiment [5]; 5.83 µM in experiment [6]. The compound also returned a TGI in experiment [7] of 7.22 µM.

Turning to `C=C(C)C(=O)O[C@H]1CC2=CC(CC(C)=C[C@H]3OC(=O)C(=C)C13)OC2=O` (stereo partly drawn), the TGI in experiment [1] was greater than 100 µM; in experiment [2], 36.9 µM; in experiment [3], greater than 100 µM; in experiment [4], 38.8 µM; in experiment [5], greater than 100 µM; in experiment [6], 40.7 µM. The same compound gave a TGI in experiment [7] greater than 100 µM.

As for `Cc1ccc(-c2c3c(N)c4c(nc3nc3c2c(C)nn3-c2ccccc2)CCC4)cc1`, the GI50 was 5.03 µM in experiment [1]; 2.18 µM in experiment [2]; 22.1 µM in experiment [3]; 18.6 µM in experiment [4]; 17.5 µM in experiment [5]; 2.81 µM in experiment [6]. Also, the GI50 in experiment [7] was 3 µM. The TGI was 15.6 µM in experiment [1]; 5.08 µM in experiment [2]; 53.7 µM in experiment [3]; 35.7 µM in experiment [4]; 40 µM in experiment [5]; 7.94 µM in experiment [6]. In experiment [7], this compound gave a TGI of 8.43 µM.

On to `CCCCN(CCCC)CCC(O)c1cc2ccc(C(F)(F)F)cc2c2cc(C(F)(F)F)ccc12` (stereo not drawn), for which the GI50 in experiment [1] is 1.55 µM; in experiment [2] it was 3.09 µM; in experiment [3] it was 2.88 µM; in experiment [4], 2.49 µM; in experiment [5] it was 2.08 µM; in experiment [6], 2.67 µM. In experiment [7], the GI50 is 2.08 µM. In addition, the TGI in experiment [1] was 4.62 µM; in experiment [2] it was 12.9 µM; in experiment [3] it was 10.5 µM; in experiment [4], 6.53 µM; in experiment [5] it was 6.81 µM; in experiment [6], 6.66 µM. Besides, the TGI in experiment [7] was found to be 4.58 µM.

Take `O=C1OC(OC/C(Br)=C(/Br)COC2OC(=O)C(Cl)=C2Cl)C(Cl)=C1Cl` (stereo not drawn): the TGI is 64.7 µM in experiment [1]; 30.8 µM in experiment [2]; greater than 70.7 µM in experiment [3]; 29.1 µM in experiment [4]; 22.5 µM in experiment [5]; 5.44 µM in experiment [6]. Further, the TGI in experiment [7] came to 34.1 µM.

As to `CN(CCCN(C)CCC1CCCCC1)CCC1CCCCC1`, the GI50 in experiment [1] is 2.26 µM; in experiment [2], 1.64 µM; in experiment [3], 2.57 µM; in experiment [4], 0.888 µM; in experiment [5], 8.7 µM; in experiment [6], 2.4 µM. Besides, in experiment [7], the GI50 is 1.6 µM. Besides, the TGI in experiment [1] stood at 6.68 µM; in experiment [2], 4.15 µM; in experiment [3] it was 11.9 µM; in experiment [4], 2.39 µM; in experiment [5] it was 22.1 µM; in experiment [6] it was 7.3 µM. Besides, the TGI in experiment [7] came to 3.23 µM.

`O=C1COCCN1c1ccc(NCc2cn(C(=O)c3ccc(Cl)cc3)c3ccccc23)cc1`: the GI50 was 3.86 µM in experiment [1]; 0.264 µM in experiment [2]; 0.159 µM in experiment [3]; 0.396 µM in experiment [4]; 3.79 µM in experiment [5]; 5.66 µM in experiment [6]. The GI50 in experiment [7] is 12.1 µM. The TGI in experiment [1] was 39.1 µM; in experiment [2] it was 83.8 µM; in experiment [3], 0.543 µM; in experiment [4], 3.37 µM; in experiment [5], 52.1 µM; in experiment [6], 47.8 µM. This compound yielded a TGI in experiment [7] of 88.4 µM.

Consider `O=C1NC(c2ccccc2)N=C2Oc3ccccc3C=C12` (stereo not drawn), for which the TGI in experiment [1] was 7.06 µM; in experiment [2], greater than 100 µM; in experiment [3] it was 12.8 µM; in experiment [4], greater than 100 µM; in experiment [5], greater than 100 µM; in experiment [6] it was greater than 100 µM. Moreover, in experiment [7], the TGI came to 0.238 µM.

The values are drawn from PubChem BioAssay (NCI).
